Results: patent US20070093469A1, “Substituted azetidine compounds as cyclooxygenase-1-cyclooxygenase-2 inhibitors, and their preparation and use as medicaments” (LABORATORIOS DEL DR. ESTEVE S.A, priority 2004, published 2007)

System: rats
Experiment: Test for activity against edema in rats (carrageenin paw)
Type: in vivo
Details: Rattus norvegicus, oral route
Description: IV. Test for Activity Against Edema in Rats
The test for activity against edema is carried out as described in the publication of Winter et al., Proc. Soc. Exp. Biol. Med. 111, 544-547, (1962). The respective part of the description is hereby incorporated by reference and forms part of the present disclosure.
At the beginning of each experimental session the rats are deprived of food, and kept in cages within groups of 5 animals, the cages being fitted with a grating on the floor to prevent coprophagy. After a period of 24 hours without food, the animals are marked in a suitable way, weighed and hydrated via oral administration of 30 ml/kg body weight of tap water. Half an hour after the hydratisation, the compounds to be tested are administered via oral route, in an amount of 10 ml/kg body weight as a suspension in gum arabic at 5% (weight/volume). One hour after administration of the compounds the animals receive 0.1 ml of the inflammation causing agent (carrageenin 1% weight/volume, in sterile solution), injected via subplantar route into the right hind paw of the rats. Immediately after the carrageenin injection the volume of the injected paw is determined using a plethysmometer. The readings are expressed in ml. Readings of the volume of the paw are taken every hour after administration of the carrageenin for 7 hours.

CC(C)(C)c1cc(C(=O)N2CC(O)C2)cc(C(C)(C)C)c1 [Example 2, (3,5-di-tert-butyl-phenyly)-(3-hydroxy-azetidin-1-yl)-methanone]
ED50: 28 mg/kg

CC1C(O)CN1C(=O)c1cc(C(C)(C)C)c(O)c(C(C)(C)C)c1 (centres unmarked) [Example 4, (3,5-di-tert-butyl-4-hydroxy-phenyl)-(3-hydroxy-2-methyl-azetidin-1-yl)-methanone]
ED50: 31 mg/kg
